{"source": "patent US11279708B2", "about": "“Amidino- and amino-rocaglates as novel translation inhibitors and anticancer agents” (priority 2019, dated 2022)", "key": {"[1]": {"tested_on": "eIF4A-dependent translation", "experiment": "in vitro translation assay, bicistronic FF/HCV/Ren reporter mRNA in Krebs-2 extracts", "assay_type": "biochemical", "conditions": "for IC50 / translation inhibition (in words): bicistronic FF/HCV/Ren mRNA; for IC50: FIG. 14/15, read-out: IC50, inhibition of cap-dependent translation (FF relative to REN)", "description": "Structure-Activity Relationships. With a number of amidino-rocaglates and amino-rocaglates in hand, we evaluated their inhibition of eIF4A-dependent translation using an in vitro assay as depicted in FIG. 14, where a bicistronic reporter mRNA was designed for translation in Krebs-2 extracts. In FIG. 14 the following description applies (a) IC50 was determined from fitted sigmoid curves; […] indicates the concentration of compound that inhibits cap-dependent translation by 50%, which was normalized by cap-independent translation. For its determination, the bicistronic reporter FF/HCV/Ren mRNA was used to produce Firefly luciferase (cap-dependent) and Renilla luciferase (cap-independent) in Krebs-2 extracts in the presence of indicated compounds at various concentrations. In particular, translation of Firefly luciferase (FF) is cap-dependent and depends on eIF4A activity; in contrast, translation of Renilla luciferase (REN) utilizes the HCV internal ribosome entry site (IRES) which functions independently of eIF4A. IC50's were determined by the inhibition of FF relative to REN obtained in the presence of compound relative to vehicle controls and normalized to REN as an internal control. […] In accordance with the eIF4A-RNA-rocaglamide (2) co-crystallographic analysis (FIG. 4), the amide carbonyl of 2 interacts with Gln195 of eIF4A as a H-bond acceptor, while the tertiary hydroxyl of 2 serves as a H-bond donor to an RNA base. […] To further verify the hypothesis, amidino-rocaglates (pKa of N—H˜26.7-30.7 in DMSO, strong H-bond donors) and amino-rocaglates (pKa of N—H˜36 to 44 in DMSO, weak H-bond donors) were next evaluated. […] Conversely, benzyl amidine 9e had IC50=60 nM, whereas the methylene tether may allow conformational adjustment to avoid rigid repulsion in the binding pocket.\nThe rocaglate collection was also tested in in vitro translation assays using cell-free extracts with a previously described bicistronic mRNA containing the HCV IRES, which is not dependent on eIF4A activity and served as an internal control (FIG. 19C).\n(§1) In Vitro Translation Assays. In vitro translation assays performed in Krebs-2 cell extracts were supplemented with 5 mM MgCl2, 30 mM Tris-HCl (pH 7.5), 1.5 mM ATP, 0.1 mM GTP, 0.6 mM CTP, 10 mM dipotassium creatine phosphate, 80 μg/mL creatine kinase, and 0.04 mM amino acids. The specified mRNA reporters were added to each reaction at a final concentration of 10 ng/μL. The translation reactions were incubated with or without compound for 60 minutes at 30° C. prior to the measurement of luciferase activities.\n(§2) FIGS. 19A-19C. Rocaglate activity profiling. 19A. Assessing eIF4A1:poly r(AG)8 (SEQ ID NO: 2) RNA binding by FP in the presence of 10 μM rocaglate. Values are expressed relative to vehicle controls and data is rank ordered. n=3±SD. 19B. The change in polarization obtained with eIF4A1:poly r(AG)8 (SEQ ID NO: 2) and eIF4A2:poly r(AG)8 (SEQ ID NO: 2) RNA. Pearson r=0.814; p<0.0001. 19C. Inhibition of cap-dependent translation by rocaglates was measured using the indicated mRNA bicistronic reporter (4 ng/ul) in Krebs-2 extracts at a final compound concentration of 2 μM. n=3±SD.\nFIG. 35A-35E are plots showing dose-response curve of FF-HCV-Ren mRNA translation in Krebs extracts with IC50s shown for inhibition of cap-dependent protein synthesis. Values are plotted relative to DMSO controls. n=2 technical replicates performed in duplicate."}, "[2]": {"tested_on": "cap-dependent translation", "experiment": "in vitro translation of (AG)10- and (UC)10-FF/HCV/Ren mRNA reporters in Krebs-2 extracts", "assay_type": "biochemical", "conditions": "cap-proximal (AG)10 or (UC)10", "description": "Rocaglates show differing mRNA targeting spectra in translation assays. The in vitro experiments described above investigating the rocaglate-mediated inhibition of cap-dependent translation were performed at a fixed rocaglate concentration (2 μM) using a generic bicistronic mRNA reporter in Krebs-2 cell-free translation extracts (FIG. 19C). To better assess the consequences of eIF4A:polypurine clamping on the initiation process, we designed a series of bicistronic reporters harboring cap-proximal polypurine tracks of varying lengths in their 5′ leader region (FIG. 22A). […] We reasoned that these reporters would provide a sensitized readout for rocaglate-induce clamping of eIF4A at this location.\nWe next tested the response of mRNA reporters containing cap-proximal (AG)10 or (UC)10 sequences (FIG. 22A). […] The difference in activity observed between CR-1-31-B (23) and silvestrol 1 was not restricted to cap-proximal polypurine tracks, but also observed with reporters where the polypurine/polypyrimidine tracks were situated 15 nt downstream from the cap (FIGS. 24A and 24B).\nas §1\nFIGS. 23A-23C. The presence of polypurines bases in mRNA 5′ leader regions are not universal predictors of rocaglate-responsiveness. FIG. 23A. Schematic diagram of FF/HCV/Ren mRNA reporters containing cap-proximal (AG) or (UC) dinucleotide repeats. 23B. Firefly and renilla luciferase activity in response to the indicated CR-1-31-B (23) concentrations (relative to DMSO controls) in Krebs-2 extracts programmed with 4 ng/uL of the indicated mRNAs. n=3±SD. 23C. Dose response of the indicated compounds in Krebs-2 extracts programmed with 4 ng/μL of the indicated mRNAs. n=3± SD.\nFIG. 23. Dose-response of (AG)10- and (UC)10-FF/HCV/Ren mRNAs to CMLD011167, hippuristanol and pateamine A in vitro. Firefly and renilla luciferase activity in response to the indicated compound concentrations (relative to DMSO controls) in Krebs-2 extracts programmed with 4 ng/μL of the indicated mRNAs. n=3± SD."}, "HEK 293 cells": {"tested_on": "HEK 293 cells", "experiment": "in cellula translation of transfected (AG)10- and (UC)10-FF/HCV/Ren mRNA", "assay_type": "cell-based", "conditions": "compound added 1 h after mRNA transfection, 6 h exposure", "from_the_text": "We next asked if differences in behavior among rocaglates towards the (AG)10- and (UC)10-reporters observed in vitro also extended in cellula (FIG. 26B). This was important since in cells, mRNA transcripts need to compete for components of the translation initiation machinery from a complex cellular mRNA pool and this scenario is difficult to recapitulate in experiments using cell-free extracts. Following mRNA transfections, cells were exposed to compound and luciferase activity determined.\nRNA Transfections. HEK 293 cells were transfected in a 24 well plate with 0.25 μg/well of in vitro synthesized capped m^7GpppG(AG)10-FF/HCV/Ren or m^7GpppG(UC)10FF/HCV/Ren mRNA and 1 h later were exposed to the indicated concentrations of compounds for an additional 6 h. Following this, extracts were prepared using passive lysis buffer (PLB, Promega) and luciferase activity measured on a Berthold Lumt LB 9507 luminometer.\nFIGS. 26A-26B. In cellula activity of rocaglates. 26A. Cytotoxicity of rocaglates towards NIH/3T3 (grey circle) and the NIH/3T3 rocaglate-resistant line, eIF4A^em1JP(redtriangle). Cells were exposed to 40 nM compound for 4 days and viability was measured using the SRB assay. n=3±SD. 26B. Rocaglates show different sequence preferences for inhibiting cap-dependent translation in cellula. HEK 293 cells were transfected with 0.5 μg of in vitro synthesized capped (AG)10-FF/HCV/Ren or (UC)10-FF/HCV/Ren mRNA and 1h later exposed to the indicated concentrations of compounds for an additional 6 h, at which time extracts were prepared and luciferase activity measured. n=3 SD.\nFIG. 28. In cellula dose-response of (AG)10- and (UC)10-FF/HCV/Ren mRNAs to hippuristanol and pateamine. Firefly and renilla luciferase activity in response to the indicated compound concentrations (relative to DMSO controls) following mRNA transfections in 293 cells. n=3±SD."}, "eIF4A1:poly r(AG)8 RNA": {"target": "T1, eIF4A1:poly r(AG)8 RNA (Homo sapiens, UniProt P60842)", "T1 construct": "His6 (N); made in house; host or cells: E. coli BL21 (DE3)", "T1 sequence (P60842 whole entry, species assumed)": "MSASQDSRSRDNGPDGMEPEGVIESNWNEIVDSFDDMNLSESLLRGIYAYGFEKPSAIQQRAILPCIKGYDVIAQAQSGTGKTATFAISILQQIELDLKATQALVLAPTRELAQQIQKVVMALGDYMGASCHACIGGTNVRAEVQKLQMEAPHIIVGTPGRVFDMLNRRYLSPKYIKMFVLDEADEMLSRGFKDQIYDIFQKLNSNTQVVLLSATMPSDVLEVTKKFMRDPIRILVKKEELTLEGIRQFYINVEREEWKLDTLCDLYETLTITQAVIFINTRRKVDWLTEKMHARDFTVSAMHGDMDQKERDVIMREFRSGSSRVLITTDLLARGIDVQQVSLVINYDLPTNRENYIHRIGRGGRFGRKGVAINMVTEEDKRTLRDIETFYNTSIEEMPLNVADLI", "experiment": "fluorescence polarization (FP) assay, eIF4A1 binding to FAM-labelled RNA", "conditions": "500 nM eIF4A1, 10 nM FAM-labelled RNA, screen at 10 μM compound", "from_the_text": "Rocaglates similarly enhance RNA binding of eIF4A1 and eIF4A2. In order to rapidly evaluate the ability of rocaglates to stimulate binding of eIF4A to RNA, a fluorescence polarization (FP) assay using a FAM (fluorescein amidite)-labelled RNA probe (FIG. 18A) was used. […] Due to the high degree of shared amino acid identity between the two paralogs, their apparent similarity with respect to RNA binding activity and response to CR-1-31-B (23), and the fact that eIF4A1 is essential but eIF4A2 is not, eIF4A1 was used in the majority of our subsequent experiments.\nFluorescence Polarization (FP) Assays. Unless otherwise specified, eIF4A (500 nM) was incubated with 10 nM FAM-labelled RNA for 30 min in FP buffer (14.4 mM HEPES-NaOH (pH 8), 108 mM NaCl, 1 mM MgCl2, 14.4% glycerol, 0.1% DMSO, 2 mM DTT, 1 mM AMPPNP) at room temperature in black low volume 384 well plates (Corning 3820). FP readings were performed on a Pherastar FS microplate reader (BMG Labtech).\nas §2\nFIG. 21. Assessing stimulation of eIF4A1:RNA binding by rocaglates and pateamine. FAM-labelled RNA was incubated in the presence of 500 nM eIF4A1 and the indicated concentrations of compound for 30 min, after which time FP measurements were taken. Limitations in WGD-57-591 availability prevented us from extending the titrations to 100 μM. The change in FP obtained relative to vehicle controls is presented. n=3±SD. FP results of competition assays in which preformed eIF4A1:rocaglate:FAM-poly r(AG)10 complexes were incubated in the presence of poly r(AG)10 (SEQ ID NO: 39) and dissociation measured as a function of time. n=3±SD."}}, "data": [{"compound": "COc1ccc([C@@]23Oc4cc(OC)cc(OC)c4[C@@]24NC(C)=N[C@@]4(O)[C@H](C(=O)N(C)C)[C@H]3c2ccccc2)cc1", "note": "[9z]", "values": [{"measurement": "IC50", "setting": "[1]", "result": 63, "unit": "nM"}]}, {"compound": "COCCN[C@]12c3c(OC)cc(OC)cc3O[C@@]1(c1ccc(OC)cc1)[C@H](c1ccccc1)C[C@@H]2N", "note": "[compound 22]", "values": [{"measurement": "translation inhibition (in words)", "setting": "[1]", "result": "no translation inhibition"}]}, {"compound": "COC(=O)[C@@H]1[C@@H](c2ccccc2)[C@]2(c3ccc(OC)cc3)Oc3cc(OC)cc(OC)c3[C@@]23NC(Cc2ccccc2)=N[C@@]13O", "note": "[9e]", "values": [{"measurement": "IC50", "setting": "[1]", "result": 60, "unit": "nM"}]}, {"compound": "COC(=O)[C@@H]1[C@@H](c2ccccc2)[C@]2(c3ccc(OC)cc3)Oc3cc(OC)cc(OC)c3[C@@]23NC(N)=N[C@@]13O", "note": "[9j]", "values": [{"measurement": "IC50", "setting": "[1]", "result": 125, "unit": "nM"}]}, {"compound": "C[C@H]1C[C@@]2(O[C@H]3C[C@H]4[C@@H]5CC[C@H]6C[C@H](O)CC[C@]6(C)[C@H]5[C@@H](O)C[C@]4(C)[C@H]3[C@@]2(C)O)OC1(C)C", "note": "[hippuristanol]", "values": [{"measurement": "inhibition of (AG)10 versus (UC)10 reporter in vitro (in words)", "setting": "[2]", "result": "equally repressed cap-dependent translation from both"}, {"measurement": "inhibition of (AG)10 versus (UC)10 reporter in cellula (in words)", "setting": "HEK 293 cells", "result": "inhibited both reporters equally"}]}, {"compound": "CCCCC1=N[C@@]2(O)[C@H](C(=O)OC)[C@@H](c3ccccc3)[C@]3(c4ccc(OC)cc4)Oc4cc(OC)cc(OC)c4[C@]23N1", "note": "[9d]", "values": [{"measurement": "IC50", "setting": "[1]", "result": 187, "unit": "nM"}]}, {"compound": "COCC1=N[C@@]2(O)[C@H](C(=O)OC)[C@@H](c3ccccc3)[C@]3(c4ccc(OC)cc4)Oc4cc(OC)cc(OC)c4[C@]23N1", "note": "[9k]", "values": [{"measurement": "IC50", "setting": "[1]", "result": 64, "unit": "nM"}]}, {"compound": "COCCN[C@]12c3c(OC)cc(OC)cc3O[C@@]1(c1ccc(OC)cc1)[C@H](c1ccccc1)C[C@@H]2O", "note": "[compound 20]", "values": [{"measurement": "translation inhibition (in words)", "setting": "[1]", "result": "no translation inhibition"}]}, {"compound": "COc1ccc([C@@]23Oc4cc(OC)cc(OC)c4[C@@]24NC(C)=N[C@@]4(O)[C@H](C(=O)N(C)OC)[C@H]3c2ccccc2)cc1", "note": "[9aa]", "values": [{"measurement": "IC50", "setting": "[1]", "result": 59, "unit": "nM"}]}, {"compound": "COC(=O)[C@@H]1[C@@H](c2ccccc2)[C@]2(c3ccc(OC)cc3)Oc3cc(OC)cc(OC)c3[C@@]23NC(C(C)(C)C)=N[C@@]13O", "note": "[9f]", "values": [{"measurement": "IC50", "setting": "[1]", "result": 267, "unit": "nM"}]}, {"compound": "CONC(=O)[C@H]1[C@@H](O)[C@@]2(O)c3c(OC)cc(OC)cc3O[C@@]2(c2ccc(Br)cc2)[C@@H]1c1ccccc1", "note": "[SDS-1-021]", "values": [{"measurement": "inhibition of cap-dependent translation in vitro (in words)", "setting": "[1]; screen at 2 μM compound", "result": "the most potent compound"}]}, {"compound": "CC(/C=C/C(C)=C/[C@@H]1Cc2nc(cs2)[C@@H](C)C[C@@H](N)CC(=O)O[C@@H](C)C/C(C)=C/C=C\\C(=O)O1)=C\\CN(C)C", "note": "[pateamine A]", "values": [{"measurement": "stimulation of eIF4A1:RNA binding (in words)", "setting": "eIF4A1:poly r(AG)8 RNA", "result": "potently induced binding to all RNA substrates tested"}, {"measurement": "inhibition of (AG)10 versus (UC)10 reporter in vitro (in words)", "setting": "[2]", "result": "equally repressed cap-dependent translation from both"}, {"measurement": "inhibition of (AG)10 versus (UC)10 reporter in cellula (in words)", "setting": "HEK 293 cells", "result": "inhibited both reporters equally"}]}, {"compound": "COCCN[C@]12c3c(OC)cc(OC)cc3O[C@@]1(c1ccc(OC)cc1)[C@H](c1ccccc1)[C@@H](C(=O)N(C)C)[C@H]2O", "note": "[compound 18]", "values": [{"measurement": "translation inhibition (in words)", "setting": "[1]", "result": "no translation inhibition"}]}]}
